In PubChem BioAssay AID1845217 (Molecular Pharmacology Branch, DTP, NCI, 2023):

Test system: VA-ES-BJ tumor spheroid viability
Experiment: Anticancer human tumor VA-ES-BJ cell line growth inhibition;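 further: spheroids exposed to compounds for seven days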;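 on viability, T/C: percent of DMSO vehicle control viability so 100% = untreated growth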
Conditions: spheroids with HUVEC and MSC; for IC50: curve of first compound; for viability, T/C: stronger effect = lower value
Outline: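 Single agents and combinations were tested on spheroids built from tumor cells plus HUVEC and hMSC, at half-log dilutions starting at or near clinical Cmax, else 10 microM; final DMSO 0.25% (v/v).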

[1] = second compound 30 pM, first compound 0.0316 µM
[2] = second compound 30 pM, first compound 0.1 µM
[3] = second compound 30 pM, first compound 0.316 µM
[4] = second compound 30 pM, first compound 1 µM
[5] = second compound 30 pM, first compound 3.16 µM
[6] = second compound 30 pM, first compound 10 µM
[7] = second compound 94.9 pM, first compound 0.0316 µM
[8] = second compound 94.9 pM, first compound 0.1 µM
[9] = second compound 94.9 pM, first compound 0.316 µM
[10] = second compound 94.9 pM, first compound 1 µM
[11] = second compound 94.9 pM, first compound 3.16 µM
[12] = second compound 94.9 pM, first compound 10 µM
[13] = second compound 0.0003 µM, first compound 0.0316 µM
[14] = second compound 0.0003 µM, first compound 0.1 µM
[15] = second compound 0.0003 µM, first compound 0.316 µM
[16] = second compound 0.0003 µM, first compound 1 µM
[17] = second compound 0.0003 µM, first compound 3.16 µM
[18] = second compound 0.0003 µM, first compound 10 µM
[19] = second compound 0.000949 µM, first compound 0.0316 µM
[20] = second compound 0.000949 µM, first compound 0.1 µM
[21] = second compound 0.000949 µM, first compound 0.316 µM
[22] = second compound 0.000949 µM, first compound 1 µM
[23] = second compound 0.000949 µM, first compound 3.16 µM
[24] = second compound 0.000949 µM, first compound 10 µM
[25] = second compound 0.003 µM, first compound 0.0316 µM
[26] = second compound 0.003 µM, first compound 0.1 µM
[27] = second compound 0.003 µM, first compound 0.316 µM
[28] = second compound 0.003 µM, first compound 1 µM
[29] = second compound 0.003 µM, first compound 3.16 µM
[30] = second compound 0.003 µM, first compound 10 µM

Structure (SMILES)	IC50 (second compound 30 pM) [nM]	IC50 (second compound 94.9 pM) [nM]	IC50 (second compound 0.0003 µM) [nM]	IC50 (second compound 0.000949 µM) [nM]	IC50 (second compound 0.003 µM) [nM]	viability, T/C [1] [%]	viability, T/C [2] [%]	viability, T/C [3] [%]	viability, T/C [4] [%]	viability, T/C [5] [%]	viability, T/C [6] [%]	viability, T/C [7] [%]	viability, T/C [8] [%]	viability, T/C [9] [%]	viability, T/C [10] [%]	viability, T/C [11] [%]	viability, T/C [12] [%]	viability, T/C [13] [%]	viability, T/C [14] [%]	viability, T/C [15] [%]	other results
COc1ccc([C@@H](O)c2cc(-c3ncnc4cc(N5CCOCC5)ccc34)c(F)cc2Cl)nn1 + COc1cc2c(cc1O)CCNC21CSC2c3c(OC(C)=O)c(C)c4c(c3C(COC1=O)N1C(O)C3Cc5cc(C)c(OC)c(O)c5C(C21)N3C)OCO4	857	510	102	< 31.6	< 31.6	124	112	90.3	43.8	15.9	10.5	111	108	64.1	29.1	15	11.4	59.6	51.3	30.5	viability, T/C [16]: 14%; viability, T/C [17]: 3.86%; viability, T/C [18]: 0.36%; viability, T/C [19]: 3.29%; viability, T/C [20]: 3.11%; viability, T/C [21]: 1.76%; viability, T/C [22]: 0.36%; viability, T/C [23]: 1.07%; viability, T/C [24]: 2.57%; viability, T/C [25]: 2.08%; viability, T/C [26]: 3.06%; viability, T/C [27]: 2.71%; viability, T/C [28]: 4.43%; viability, T/C [29]: 5.13%; viability, T/C [30]: 6.09%
Cc1cc(C)c(CNC(=O)c2cc(-c3ccc(CN4CCOCC4)cc3)cc3c2cnn3C2CCCC2)c(=O)[nH]1 + COc1cc2c(cc1O)CCNC21CSC2c3c(OC(C)=O)c(C)c4c(c3C(COC1=O)N1C(O)C3Cc5cc(C)c(OC)c(O)c5C(C21)N3C)OCO4	> 10000	> 10000	< 31.6	< 31.6	< 31.6	103	105	109	104	101	96.4	97.6	101	96.8	95.2	88.7	82.6	48.5	48.4	47.7	viability, T/C [16]: 42.4%; viability, T/C [17]: 38.6%; viability, T/C [18]: 32.6%; viability, T/C [19]: 2.91%; viability, T/C [20]: 3.27%; viability, T/C [21]: 3.08%; viability, T/C [22]: 2.61%; viability, T/C [23]: 2.08%; viability, T/C [24]: 1.68%; viability, T/C [25]: 0.95%; viability, T/C [26]: 1.8%; viability, T/C [27]: 1.23%; viability, T/C [28]: 1.96%; viability, T/C [29]: 1.92%; viability, T/C [30]: 1.57%
[2H]c1nc(C)nc([2H])c1-c1cc(NC[C@@H](C)c2cccc3c(C(=O)NC)ccnc23)ncn1 + COc1cc2c(cc1O)CCNC21CSC2c3c(OC(C)=O)c(C)c4c(c3C(COC1=O)N1C(O)C3Cc5cc(C)c(OC)c(O)c5C(C21)N3C)OCO4	> 10000	> 10000	< 31.6	< 31.6	< 31.6	75.6	78.4	81.4	81.9	85.2	87.5	72.9	74	83.1	81	82.6	76.8	46.8	40.9	43.9	viability, T/C [16]: 42.1%; viability, T/C [17]: 36%; viability, T/C [18]: 38.4%; viability, T/C [19]: 3.46%; viability, T/C [20]: 1.96%; viability, T/C [21]: 3.4%; viability, T/C [22]: 2.92%; viability, T/C [23]: 2.41%; viability, T/C [24]: 1.53%; viability, T/C [25]: 0.81%; viability, T/C [26]: 0.92%; viability, T/C [27]: 0.98%; viability, T/C [28]: 1.25%; viability, T/C [29]: 1.28%; viability, T/C [30]: 2.09%
